Measured values taken from patent publication US20100075345A1, “METHOD OF SCREENING” (priority 2007, published 2010).

Test system: Mcl-1^(−/−) mouse embryonic fibroblasts (MEFs)
Test: Assay of Mcl-1 null MEF cells: ABT-737-induced killing and rescue, cell viability by CellTitre-Blue/CellTitre-Glo
Format: cell-based
Method: In summary, cells are split on day one in order to have them at a confluency of 60-80% on day two. On day two, the cells are seeded out into assay plates at a density that will ensure they are not confluent by day four of the assay. The assay plates are incubated at room temperature for 20-60 minutes before being transferred to 37° C. so that edge effects are minimized. For the same reason, assay plates are never stacked on top of each other in the incubator. On day three the cells are treated first with either qVD or with WEHI library compound. […] On day four the cells are incubated for four hours in the presence of CellTitre-Blue™ Cell Viability Assay. This product contains resaruzin which is metabolized by live cells to resorufin. After four hours the level of resorufin is measured. […] This product measures the level of ATP in the cell culture as a direct correlate of cell viability via a luciferase-dependent luminescence output. […]
The protocol for day one was repeated up to the point where the cells were pelleted and the supernatant aspirated off. […] The cells were vortexed and then counted using a haemocytometer. The dilution necessary to achieve a density of 2×10^4 cells ml^−1 (1000 cells per well per 50 μl media) in the required volume was calculated and the dilution performed in 1% FCS containing media. […]

Compound	EC50 (Mus musculus, Fibroblast, ABT-737-treated Mcl(−/−) cells grown in 1% FCS, headed 'Expected EC50s')	inhibition of killing of Mcl-1 null MEF cells by ABT-737 (rescue from ABT-737-induced apoptosis) (cells pre-incubated 2 hours with compound, then treated with ABT-737, viability read next day)
CC(C)[C@H](NC(=O)c1ccc2ccccc2n1)C(=O)N[C@@H](CC(=O)O)C(=O)COc1c(F)cccc1F [qVD-OPH]		can be rescued
